Test results: PubChem BioAssay (NCI)
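Values below derive from 48-hour exposures of cells grown in 96-well plates, with endpoints linearly interpolated between the two concentrations bracketing the appropriate inhibition level. TGI denotes the concentration required for complete inhibition of growth.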

Columns and labels:
Assay in all cases: NCI-60 cell line screen, 48 h
HCT-116 colon = test system: HCT-116 colon
U251 CNS = test system: U251 CNS
RPMI-8226 leukemia = test system: RPMI-8226 leukemia
OVCAR-4 ovarian = test system: OVCAR-4 ovarian
RXF 393 renal = test system: RXF 393 renal
UACC-62 melanoma = test system: UACC-62 melanoma
CAKI-1 renal = test system: CAKI-1 renal
HL-60(TB) leukemia = test system: HL-60(TB) leukemia
A498 renal = test system: A498 renal
MDA-MB-231 breast = test system: MDA-MB-231 breast

| Structure (SMILES) | TGI (HCT-116 colon) | TGI (U251 CNS) | TGI (RPMI-8226 leukemia) | TGI (OVCAR-4 ovarian) | TGI (RXF 393 renal) | TGI (UACC-62 melanoma) | TGI (CAKI-1 renal) | TGI (HL-60(TB) leukemia) | TGI (A498 renal) | TGI (MDA-MB-231 breast) |
| --- | --- | --- | --- | --- | --- | --- | --- | --- | --- | --- |
| Cn1c(SCc2ccc([N+](=O)[O-])cc2)nnc1C12CC3CC(CC(C3)C1)C2 | > 10 µM | > 10 µM | > 10 µM | > 10 µM | > 10 µM | > 10 µM | > 10 µM | > 10 µM | > 10 µM | > 10 µM |
| C[C@]12CC[C@@H]3c4cc(C=O)c(OCc5ccccc5)cc4CC[C@H]3[C@@H]1CCC2OCc1ccccc1 (stereo not given in full) | > 100 µM | > 100 µM | > 100 µM | > 100 µM | > 100 µM | > 100 µM | > 100 µM | > 100 µM | > 100 µM | > 100 µM |
| CCN1CCC(O)(/C=C/c2ccc(Cl)c(Cl)c2)C(C(=O)/C=C/c2ccc(Cl)c(Cl)c2)C1 (stereo not given) | 1.73 µM | 3.79 µM | > 100 µM | 2.21 µM | 2.71 µM | 2.4 µM | 3.21 µM | 0.905 µM | 2.91 µM | 1.6 µM |
| CC(C)(C)c1ccc(OCCOc2ccc(C(C)(C)C)cc2NC=O)c(NC=O)c1 | 33.5 µM | 34.7 µM | 13.6 µM | 54.2 µM | 28.2 µM | 28.1 µM | > 67.7 µM | > 100 µM | 40 µM | 40.5 µM |
| CC(=O)OC1CC[C@@]2(C)C(=CC[C@@H]3[C@@H]2CC[C@]2(C)Nc4c(cnn4-c4ccc(F)cc4)C[C@@H]32)C1 (stereo not given in full) | > 50.5 µM | 47.3 µM | 28.3 µM | > 100 µM | 11 µM | > 71.1 µM | 42.8 µM | > 26 µM | > 83.1 µM | > 100 µM |
| CC(C)C(C=O)C(O)(C(F)(F)F)C(F)(F)F (stereo not given) | > 100 µM | > 100 µM | > 100 µM | > 100 µM | > 100 µM | > 100 µM | > 100 µM | > 100 µM | > 100 µM | > 100 µM |
| C=c1c2ccccc2oc2nc3[nH]c(N)c(C#N)c(N)c3c(=N)c12 | > 100 µM | > 100 µM | > 100 µM | > 100 µM | > 100 µM | > 100 µM | > 100 µM | 90.3 µM | > 100 µM | > 100 µM |
| O=C1C(Nc2ccc(S(=O)(=O)Nc3cnc4ccccc4n3)cc2)=CC(=Nc2ccc(S(=O)(=O)Nc3cnc4ccccc4n3)cc2)c2ccccc21 | 32.9 µM | 34 µM | > 77.8 µM | 47.2 µM | 32.3 µM | 33.6 µM | 31.2 µM | 54.7 µM | 30.3 µM | 70.2 µM |
| Cc1cccc(N=Nc2ccc(O)c(CN(C)C)c2)c1 | > 100 µM | > 100 µM | > 100 µM | > 100 µM | 73.7 µM | 30.4 µM | > 100 µM | 54.2 µM | 38.8 µM | > 100 µM |
| Cc1ccnc2[nH]c(-c3ccc(Cl)cc3)cc(=O)c12 | > 100 µM | > 100 µM | > 58.5 µM | > 100 µM | > 100 µM | > 100 µM | > 100 µM | 4.74 µM | 46.6 µM | > 100 µM |
| C=C1C(O)C2OC(=O)C(=C)C2C(OC(=O)/C(C)=C/C)CC2(C)OC2C2OC12 (stereo not given) | > 100 µM | > 100 µM | 7.72 µM | > 100 µM | 35.6 µM | 48.2 µM | 26.9 µM | 7.44 µM | 46.4 µM | 37.9 µM |
| c1ccc(C(OCCN2CC3CCC(C2)N3)c2ccccc2)cc1 | > 100 µM | > 100 µM | > 100 µM | > 100 µM | > 100 µM | 64.3 µM | > 100 µM | > 100 µM | > 100 µM | > 100 µM |
| C1=Nc2ccc(cc2)-c2ccc(cc2)N=Cc2ccccc2OCc2cccc(n2)COc2ccccc21 | > 100 µM | > 42.8 µM | > 100 µM | > 100 µM | > 84 µM | > 100 µM | > 100 µM | > 100 µM | > 100 µM | > 66.3 µM |
| CN1CN(c2ccccc2)C2(CCN(C(=O)OC(C)(C)C)CC2)C1=O | > 100 µM | > 100 µM | > 100 µM | > 100 µM | > 100 µM | > 100 µM | > 100 µM | > 100 µM | > 100 µM | > 100 µM |
| CCc1c[n+]2c(cc1C1=CN3c4ccccc4[C@]45CCN6C/C(=C/CO)[C@H](C[C@H]64)[C@@H]([C@@H]1O)[C@H]35)-c1[nH]c3ccccc3c1CC2 | > 50 µM | > 50 µM | > 50 µM | > 50 µM | > 50 µM | > 50 µM | > 50 µM | > 50 µM | > 50 µM | > 50 µM |
| O=[N+]([O-])c1cc(-c2ccc([As](=O)(O)O)cc2)ccc1[As](=O)(O)O | > 100 µM | > 100 µM | > 100 µM | > 100 µM | > 100 µM | > 100 µM | > 100 µM | > 100 µM | > 100 µM | > 100 µM |
| CCOP(=O)(OCC)C(Cc1cn(S(=O)(=O)c2ccc(C)cc2)cn1)C(=O)O (stereo not given) | > 100 µM | > 100 µM | > 100 µM | > 100 µM | > 100 µM | > 100 µM | > 100 µM | > 100 µM | > 100 µM | > 100 µM |
| COC(=O)c1cc(NC(=O)Cn2c3ccccc3c3ccccc32)cn1C | > 100 µM | > 100 µM | 75 µM | 74.9 µM | > 100 µM | 73.9 µM | > 100 µM | > 100 µM | > 100 µM | 48.8 µM |
| COc1cc(/C=[N+](\[O-])c2ccccc2Cl)ccc1OC(=S)S | > 100 µM | > 100 µM | > 100 µM | 27.8 µM | 89.3 µM | 99.7 µM | > 100 µM | 47.6 µM | > 100 µM | > 100 µM |
| O=C1/C(=C/Cc2ccco2)N=C(c2ccccc2)N1c1nc2ccc(Sc3ccccc3)cc2[nH]1 | 40.7 µM | 43.9 µM | > 100 µM | 86.3 µM | 36.1 µM | 83.1 µM | > 100 µM | 45.4 µM | 30.7 µM | 57 µM |
| Nc1nc(Cl)cc(Oc2ccc(Cl)cc2)n1 | > 100 µM | > 100 µM | > 100 µM | > 100 µM | > 100 µM | > 100 µM | > 100 µM | > 100 µM | > 100 µM | > 100 µM |
| COc1c(C(=O)CC2c3c(cc4oc(C)cc(=O)c4c3OC)OC(=N)C2c2nc3ccccc3[nH]2)c(O)c(OC)c2occc12 (stereo not given) | > 100 µM | > 100 µM | > 100 µM | > 100 µM | > 100 µM | > 100 µM | > 100 µM | > 100 µM | > 100 µM | > 100 µM |
| Clc1cccc(C=NC23CC4CC(CC(C4)C2)C3)c1Cl | > 10 µM | > 10 µM | > 10 µM | > 10 µM | > 10 µM | > 10 µM | > 10 µM | > 10 µM | > 10 µM | > 10 µM |
| COc1cc([C@@H]2c3cc4c(cc3[C@H](OC3OC5COC(C(C)C)OC5C(O)C3O)C3COC(=O)[C@@H]32)OCO4)cc(OC)c1OC (stereo not given in full) | 7.8 µM | > 21.2 µM | 48.8 µM | > 100 µM | 9.46 µM | 26.6 µM | 17.5 µM | > 25.8 µM | 9.96 µM | 19.2 µM |
| Cc1[nH]c(-c2ccccc2)c(O)c1C(=O)OC1CC(C)CCC1C(C)C (stereo not given) | 28.1 µM | 28.9 µM | 54.9 µM | 27.4 µM | 24.3 µM | 30.9 µM | 32.2 µM | 42.6 µM | 32.7 µM | 29 µM |
| COc1ccc2cc(CNCCOCCOCCNCc3ccc4cc(OC)ccc4c3)ccc2c1 | 7.86 µM | 8.46 µM | 2.03 µM | 4.07 µM | 3.18 µM | 3.38 µM | 3.22 µM | 0.657 µM | 3.78 µM | 2.91 µM |
| Cc1ccc(S(=O)(=O)N(CC(O)COc2ccccc2)c2ccccc2Cl)cc1 (stereo not given) | 27.7 µM | 29.2 µM | 30.4 µM | 26.1 µM | 32 µM | 21.5 µM | 44.3 µM | 67.8 µM | 35 µM | 29.3 µM |
| CCOC(=O)/C(C(N)=O)=C(/O)c1cnccn1 | > 100 µM | > 100 µM | > 100 µM | > 100 µM | > 100 µM | > 100 µM | > 100 µM | > 100 µM | > 100 µM | > 100 µM |
| COc1cc2c(cc1OC)C/C(=N\O)c1cc(OC)c(OC)cc1/C=C\2 | > 39.2 µM | > 41.1 µM | 66.9 µM | > 100 µM | 38.4 µM | > 58 µM | > 29.4 µM | 19.5 µM | > 100 µM | > 29.3 µM |
| COC(=O)C1=C(C(=O)OC)SC2(S1)C(C(=O)OC)=C(C(=O)OC)Sc1c2ssc1=O | 1.78 µM | 4.68 µM | 5.68 µM | 2.79 µM | 2.7 µM | 1.37 µM | 2.93 µM | 0.0492 µM | 3.68 µM | 3.55 µM |
